In US11458123B2 (Arvinas, Inc., priority 2016, dated 2022):

Tested on: tau protein
Assay: Tau protein in vitro degradation assay (Western blot, Tau-13 antibody)
Format: cell-based, human
Conditions: SK-N-SH cells, 72 hours of incubation; for Degradation activity (tau protein remaining; highest amount of degradation observed at any dosage) / Degradation activity* (highest amount of degradation observed at any dosage; tau protein remaining): tested at 300 nM, 100 nM, 33 nM and 11 nM, Western blot, Tau-13 antibody; for Activity* (highest amount of degradation observed at any dosage, as tau protein remaining): tested at 1000 nM, 300 nM and 100 nM
Method: Tau Protein In Vitro Degradation Assay
To determine effect of PROTACs on tau protein degradation SK-N-SH cells were seeded in a 24-well tissue culture-treated plate for at least 18-hours prior to compound addition. Tau PROTACs were evaluated for tau degradation by lysing the cells in lysis buffer with protease inhibitors following a 72-hour incubation with tau PROTACs at 1000 nM, 300 nM and 100 nM for Table 1 and 300 nM, 100 nM, 33 nM and 11 nM for Table 2. Cell lysates were run on standard SDS-PAGE gels, and tau levels were detected by Western blotting using Tau-13 antibody from Abcam (Cambridge, UK) that binds to all forms of human tau.

## Cn1c2ccncc2c2ccc(-c3ccc(O[C@H]4C[C@H](OCCOCCOCCOCC5CN(c6ccc7c(c6)C(=O)N(C6CCC(=O)NC6=O)C7=O)C5)C4)nc3)cc21 (stereo partly shown) [Compound 206, 2-(2,6-dioxopiperidin-3-yl)-5-(3-((2-(2-(2-((1r,3r)-3-((5-(5-methyl-5H-pyrido[4,3-b]indol-7-yl)pyridin-2-yl)oxy)cyclobutoxy)ethoxy)ethoxy)ethoxy)methyl)azetidin-1-yl)isoindoline-1,3-dione]
  Degradation activity (tau protein remaining; highest amount of degradation observed at any dosage): B (≤80% and >50% tau protein remaining after 72 hours of incubation with the test compound)

## Cn1c2ccncc2c2ccc(-c3ccc(OCCCCOCCCCOC4CC5(C4)CN(c4ccc6c(c4)C(=O)N(C4CCC(=O)NC4=O)C6=O)C5)nc3)cc21 (stereo not shown) [Compound 100, 2-(2,6-dioxopiperidin-3-yl)-5-(6-(4-(4-((5-(5-methyl-5H-pyrido[4,3-b]indol-7-yl)pyridin-2-yl)oxy)butoxy)butoxy)-2-azaspiro[3.3]heptan-2-yl)isoindoline-1,3-dione]
  Degradation activity* (highest amount of degradation observed at any dosage; tau protein remaining): C (>80% tau protein remaining after 72 hours of incubation with the test compound)

## Cn1c2ccncc2c2ccc(-c3ccc(O[C@H]4C[C@@H](C(=O)N5CC6(CC(OCCCCOc7ccc8c(c7)C(=O)N(C7CCC(=O)NC7=O)C8=O)C6)C5)C4)nc3)cc21 (stereo partly shown) [Compound 136, 2-(2,6-dioxopiperidin-3-yl)-5-(4-((2-((1 s,3 s)-3-((5-(5-methyl-5H-pyrido[4,3-b]indol-7-yl)pyridin-2-yl)oxy)cyclobutane-1-carbonyl)-2-azaspiro[3.3]heptan-6-yl)oxy)butoxy)isoindoline-1,3-dione]
  Degradation activity* (highest amount of degradation observed at any dosage; tau protein remaining): C (>80% tau protein remaining after 72 hours of incubation with the test compound)

## O=C1CCC(N2C(=O)c3ccc(OCCCCCN4CCC(O[C@H]5C[C@H](Oc6ccc(-c7ccc8c(c7)[nH]c7ccncc78)cn6)C5)CC4)cc3C2=O)C(=O)N1 (stereo partly shown) [Compound 65, 5-((5-(4-((1r,3r)-3-((5-(5H-pyrido[4,3-b]indol-7-yl)pyridin-2-yl)oxy)cyclobutoxy)piperidin-1-yl)pentyl)oxy)-2-(2,6-dioxopiperidin-3-yl)isoindoline-1,3-dione]
  Degradation activity* (highest amount of degradation observed at any dosage; tau protein remaining): C (>80% tau protein remaining after 72 hours of incubation with the test compound)

## Cn1c2ccncc2c2ccc(-c3cnc(OCCOCCOCCOCCOCCOc4ccc5c(c4)C(=O)N(C4CCC(=O)NC4=O)C5=O)c(C#N)c3)cc21 (stereo not shown) [Compound 203, 2-((14-((2-(2,6-dioxopiperidin-3-yl)-1,3-dioxoisoindolin-5-yl)oxy)-3,6,9,12-tetraoxatetradecyl)oxy)-5-(5-methyl-5H-pyrido[4,3-b]indol-7-yl)nicotinonitrile]
  Degradation activity (tau protein remaining; highest amount of degradation observed at any dosage): A (≤50% tau protein remaining after 72 hours of incubation with the test compound)

## O=C1CCC(N2C(=O)c3cccc(NCCOCCOCCOCCN4CCN(c5ccn6c(n5)nc5ccccc56)CC4)c3C2=O)C(=O)N1 (stereo not shown) [Compound 25, 4-((2-(2-(2-(2-(4-(benzo[4,5]imidazo[1,2-a]pyrimidin-2-yl)piperazin-1-yl)ethoxy)ethoxy)ethoxy)ethyl)amino)-2-(2,6-dioxopiperidin-3-yl)isoindoline-1,3-dione]
  Activity* (highest amount of degradation observed at any dosage, as tau protein remaining): C (>80% tau protein remaining after 72 hours of incubation with the test compound)

## Cc1ncsc1-c1ccc(CNC(=O)[C@@H]2C[C@@H](O)CN2C(=O)[C@@H](NC(=O)COCCOCCOCCOCC(O)COc2ccc3nc(-c4ccc(N(C)C)cc4)ccc3c2)C(C)(C)C)cc1 (stereo partly drawn) [Compound 46, (2S,4R)-1-((2S)-2-tert-butyl-18-(2-(4-(dimethylamino)phenyl)quinolin-6-yloxy)-17-hydroxy-4-oxo-6,9,12,15-tetraoxa-3-azaoctadecane)-4-hydroxy-N-(4-(4-methylthiazol-5-yl)benzyl)pyrrolidine-2-carboxamide]
  Activity* (highest amount of degradation observed at any dosage, as tau protein remaining): C (>80% tau protein remaining after 72 hours of incubation with the test compound)

## Cc1ncsc1-c1ccc(CNC(=O)[C@@H]2C[C@@H](O)CN2C(=O)[C@@H](NC(=O)COCCOCCOCCOCCOc2ccc(-c3ccc4c(c3)[nH]c3ccncc34)cn2)C(C)(C)C)cc1 [Compound 6, (2S,4R)-1-((S)-17-(5-(5H-pyrido[4,3-b]indol-7-yl)pyridin-2-yloxy)-2-tert-butyl-4-oxo-6,9,12,15-tetraoxa-3-azaheptadecane)-4-hydroxy-N-(4-(4-methylthiazol-5-yl)benzyl)pyrrolidine-2-carboxamide]
  Activity* (highest amount of degradation observed at any dosage, as tau protein remaining): C (>80% tau protein remaining after 72 hours of incubation with the test compound)

## Cn1c2ccncc2c2ccc(-c3ccc(O[C@H]4C[C@H](CN5CC6(CC(OCCCCOc7ccc8c(c7)C(=O)N(C7CCC(=O)NC7=O)C8=O)C6)C5)C4)nc3)cc21 (stereo partly shown) [Compound 135, 2-(2,6-dioxopiperidin-3-yl)-5-(4-((2-(((1r,3r)-3-((5-(5-methyl-5H-pyrido[4,3-b]indol-7-yl)pyridin-2-yl)oxy)cyclobutyl)methyl)-2-azaspiro[3.3]heptan-6-yl)oxy)butoxy)isoindoline-1,3-dione]
  Degradation activity* (highest amount of degradation observed at any dosage; tau protein remaining): B (≤80% and >50% tau protein remaining after 72 hours of incubation with the test compound)

## Cc1ncsc1-c1ccc([C@H](C)NC(=O)[C@@H]2C[C@@H](O)CN2C(=O)[C@@H](NC(=O)COCCOCCOCCOCC(=O)N2CCN(c3ccn4c(n3)nc3ccccc34)CC2)C(C)(C)C)cc1 [Compound 18, (2S,4R)-1-((S)-17-(4-(benzo[4,5]imidazo[1,2-a]pyrimidin-2-yl)piperazin-1-yl)-2-(tert-butyl)-4,17-dioxo-6,9,12,15-tetraoxa-3-azaheptadecanoyl)-4-hydroxy-N—((S)-1-(4-(4-methylthiazol-5-yl)phenyl)ethyl)pyrrolidine-2-carboxamide]
  Activity* (highest amount of degradation observed at any dosage, as tau protein remaining): C (>80% tau protein remaining after 72 hours of incubation with the test compound)

## O=C1CCC(N2C(=O)c3ccc(OCCCCCC(=O)N4CCC(O[C@H]5C[C@H](Oc6ccc(-c7ccc8c(c7)[nH]c7ccncc78)cn6)C5)CC4)cc3C2=O)C(=O)N1 (stereo partly shown) [Compound 164, 5-(6-(4-((1r,3r)-3-(5-(5H-pyrido[4,3-b]indol-7-yl)pyridin-2-yloxy)cyclobutoxy)piperidin-1-yl)-6-oxohexyloxy)-2-(2,6-dioxopiperidin-3-yl)isoindoline-1,3-dione]
  Degradation activity* (highest amount of degradation observed at any dosage; tau protein remaining): C (>80% tau protein remaining after 72 hours of incubation with the test compound)

## Cn1c2ccncc2c2ccc(-c3ccc(O[C@H]4C[C@H](Oc5ccc(CCCCCCOc6ccc7c(c6)C(=O)N(C6CCC(=O)NC6=O)C7=O)cc5)C4)nc3)cc21 (stereo partly shown) [Compound 147, 2-(2,6-dioxopiperidin-3-yl)-5-((6-(4-((1r,3r)-3-((5-(5-methyl-5H-pyrido[4,3-b]indol-7-yl)pyridin-2-yl)oxy)cyclobutoxy)phenyl)hexyl)oxy)isoindoline-1,3-dione]
  Degradation activity* (highest amount of degradation observed at any dosage; tau protein remaining): C (>80% tau protein remaining after 72 hours of incubation with the test compound)

## O=C1CCC(N2C(=O)c3cccc(NCCOCCOCCOCCOCCOc4ccc(-c5ccc6c(c5)[nH]c5ccncc56)cc4)c3C2=O)C(=O)N1 (stereo not shown) [Compound 86, 4-((14-(4-(5H-pyrido[4,3-b]indol-7-yl)phenoxy)-3,6,9,12-tetraoxatetradecyl)amino)-2-(2,6-dioxopiperidin-3-yl)isoindoline-1,3-dione]
  Degradation activity* (highest amount of degradation observed at any dosage; tau protein remaining): C (>80% tau protein remaining after 72 hours of incubation with the test compound)

## Cn1c2ccncc2c2ccc(-c3ccc(OC4CC5(C4)CN(C(=O)COCCCOC4CN(c6ccc7c(c6)C(=O)N(C6CCC(=O)NC6=O)C7=O)C4)C5)nc3)cc21 (stereo not shown) [Compound 193, 2-(2,6-dioxopiperidin-3-yl)-5-(3-(3-(2-(6-((5-(5-methyl-5H-pyrido[4,3-b]indol-7-yl)pyridin-2-yl)oxy)-2-azaspiro[3.3]heptan-2-yl)-2-oxoethoxy)propoxy)azetidin-1-yl)isoindoline-1,3-dione]
  Degradation activity (tau protein remaining; highest amount of degradation observed at any dosage): B (≤80% and >50% tau protein remaining after 72 hours of incubation with the test compound)

## Cc1ncsc1-c1ccc(CNC(=O)[C@@H]2C[C@@H](O)CN2C(=O)[C@@H](NC(=O)COCCOCCOCCOCCN2CCN(c3ccn4c(n3)nc3ccccc34)CC2)C(C)(C)C)cc1 [Compound 23, (2S,4R)-1-((5)-17-(4-(benzo[4,5]imidazo[1,2-a]pyrimidin-2-yl)piperazin-1-yl)-2-(tert-butyl)-4-oxo-6,9,12,15-tetraoxa-3-azaheptadecanoyl)-4-hydroxy-N-(4-(4-methylthiazol-5-yl)benzyl)pyrrolidine-2-carboxamide]
  Activity* (highest amount of degradation observed at any dosage, as tau protein remaining): C (>80% tau protein remaining after 72 hours of incubation with the test compound)

## Cc1ncsc1-c1ccc(CNC(=O)[C@@H]2C[C@@H](O)CN2C(=O)[C@H](C(C)C)N2Cc3ccccc3C2=O)c(OCCOCCOCCOCCOc2ccc(-c3ccc4c(c3)[nH]c3ccncc34)cn2)c1 [Compound 196, (2S,4R)—N-(2-(2-(2-(2-(2-((5-(5H-pyrido[4,3-b]indol-7-yl)pyridin-2-yl)oxy)ethoxy)ethoxy)ethoxy)ethoxy)-4-(4-methylthiazol-5-yl)benzyl)-4-hydroxy-1-((S)-3-methyl-2-(1-oxoisoindolin-2-yl)butanoyl)pyrrolidine-2-carboxamide]
  Degradation activity (tau protein remaining; highest amount of degradation observed at any dosage): C (>80% tau protein remaining after 72 hours of incubation with the test compound)
